Assay results published in patent US11931343B2 (ARCUS BIOSCIENCES, INC., priority 2018, dated 2024).

Molecular target: T1, human CD73 (Homo sapiens, UniProt P21589)
T1 sequence (P21589 27-549): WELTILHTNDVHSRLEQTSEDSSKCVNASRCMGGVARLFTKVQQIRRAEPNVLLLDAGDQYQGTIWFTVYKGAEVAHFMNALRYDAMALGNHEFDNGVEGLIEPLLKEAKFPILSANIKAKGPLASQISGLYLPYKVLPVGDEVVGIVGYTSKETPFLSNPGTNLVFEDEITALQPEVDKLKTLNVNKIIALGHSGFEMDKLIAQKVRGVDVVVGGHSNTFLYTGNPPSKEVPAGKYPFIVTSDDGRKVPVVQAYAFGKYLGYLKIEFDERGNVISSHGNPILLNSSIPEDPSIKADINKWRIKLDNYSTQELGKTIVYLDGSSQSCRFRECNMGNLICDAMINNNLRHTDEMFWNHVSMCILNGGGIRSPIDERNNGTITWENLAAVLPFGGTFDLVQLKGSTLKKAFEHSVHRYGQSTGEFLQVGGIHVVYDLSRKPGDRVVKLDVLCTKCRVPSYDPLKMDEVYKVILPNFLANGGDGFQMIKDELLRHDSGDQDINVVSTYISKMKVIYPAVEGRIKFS
Assay: Inhibition of Ecto-5′-nucleotidase (CD73) activity in CHO-CD73 cells, phosphate release from AMP
Assay type: cell-based
Details: CHO-K1 cells stably transfected with human CD73; 25 μM AMP; 50 minutes, 37° C.; read-out: Potency: CD73 IC50

Row | SMILES | IC50 [nM]
1 | N#Cc1ccc(Cn2nccc2-c2cc(F)c3nnn(-c4ccc5[nH]c(=O)[nH]c5c4)c3c2)c(CNCC2CCCC2)c1 [Example 296] | 100 to 1000
2 | N#Cc1ccc(Cn2nccc2-c2cc(F)c3nnn(-c4ccc5[nH]c(=O)[nH]c5c4)c3c2)c(CO)c1 [Example 297] | < 100
3 | N#Cc1ccc(Cn2nccc2-c2cc(F)c3nnn(-c4ccc5[nH]c(=O)[nH]c5c4)c3c2)c(-c2ncco2)c1 [Example 299] | 100 to 1000
4 | Cc1cc(-n2nccc2-c2cc(Cl)c3nnn(-c4ccc5[nH]c(=O)[nH]c5c4)c3c2)cc(C)n1 [Example 300] | 100 to 1000
5 | CS(=O)(=O)c1cccc(-n2nccc2-c2cc(Cl)c3nnn(-c4ccc5[nH]c(=O)[nH]c5c4)c3c2)c1 [Example 301] | 100 to 1000
6 | Cc1cc(C#N)ccc1Cn1nccc1-c1cc(F)c2nnn(-c3ccc4[nH]c(=O)[nH]c4c3)c2c1 [Example 302] | 100 to 1000
7 | Cn1nccc1-c1cc(C#N)ccc1Cn1nccc1-c1cc(F)c2nnn(-c3ccc4[nH]c(=O)[nH]c4c3)c2c1 [Example 303] | 100 to 1000
8 | N#Cc1ccc(Cn2nccc2-c2cc(F)c3nnn(-c4ccc5[nH]c(=O)[nH]c5c4)c3c2)c(-c2ccn[nH]2)c1 [Example 304] | 100 to 1000
9 | CC(C)(O)C1CN(Cc2cc(C#N)ccc2Cn2nccc2-c2cc(F)c3nnn(-c4ccc5[nH]c(=O)[nH]c5c4)c3c2)C1 [Example 305] | 100 to 1000
10 | N#Cc1ccc(Cn2nccc2-c2cc(F)c3nnn(-c4ccc5[nH]c(=O)[nH]c5c4)c3c2)c(C(=O)O)c1 [Example 306] | 100 to 1000
11 | CNC(=O)c1cc(C#N)ccc1Cn1nccc1-c1cc(F)c2nnn(-c3ccc4[nH]c(=O)[nH]c4c3)c2c1 [Example 307] | 100 to 1000
12 | N#Cc1ccc(Cn2nccc2-c2cc(F)c3nnn(-c4ccc5[nH]c(=O)[nH]c5c4)c3c2)c(C(=O)N2CC(O)C2)c1 [Example 308] | > 1000
13 | CCc1cc(C#N)ccc1Cn1nccc1-c1cc(F)c2nnn(-c3ccc4[nH]c(=O)[nH]c4c3)c2c1 [Example 309] | 100 to 1000
14 | N#Cc1ccc(Cn2nccc2-c2cc(F)c3nnn(-c4ccc5[nH]c(=O)[nH]c5c4)c3c2)c(S(N)(=O)=O)c1 [Example 310] | 100 to 1000
15 | N#Cc1ccc(Cn2nccc2-c2cn3c(-c4ccc5[nH]c(=O)[nH]c5c4)cnc3cn2)cc1 [Example 311] | > 1000
16 | CC(C)(O)c1cc(C#N)ccc1Cn1nccc1-c1cc(F)c2nnn(-c3ccc4[nH]c(=O)[nH]c4c3)c2c1 [Example 312] | > 1000
17 | CC(O)c1cc(C#N)ccc1Cn1nccc1-c1cc(F)c2nnn(-c3ccc4[nH]c(=O)[nH]c4c3)c2c1 (centres unmarked) [Example 313] | 100 to 1000
18 | N#Cc1ccc(Cn2nccc2-c2cc3c(cn2)c(N)nn3-c2ccc3[nH]c(=O)[nH]c3c2)cc1 [Example 314] | 100 to 1000
19 | N#Cc1ccc(Cn2nccc2-c2cnc3c(N)nn(-c4ccc5[nH]c(=O)[nH]c5c4)c3c2)nc1 [Example 315] | 100 to 1000
20 | Cn1nc(-c2ccc3[nH]c(=O)[nH]c3c2)c2cc(-c3ccnn3Cc3ccc(C#N)cc3)cnc21 [Example 316] | 100 to 1000
21 | Cc1nn(-c2ccc3cn[nH]c3c2)c2cc(-c3ccnn3Cc3ccc(C#N)cc3)cnc12 [Example 317] | 100 to 1000
22 | N#Cc1cnc(Cn2nccc2-c2cc(F)c3nnn(-c4ccc5[nH]c(=O)[nH]c5c4)c3c2)c2ccccc12 [Example 318] | > 1000
23 | N#CCc1ccc(Cn2nccc2-c2cc(F)c3nnn(-c4ccc5[nH]c(=O)[nH]c5c4)c3c2)cc1 [Example 319] | > 1000
24 | Cc1coc(-c2cc(C#N)ccc2Cn2nccc2-c2cc(F)c3nnn(-c4ccc5[nH]c(=O)[nH]c5c4)c3c2)n1 [Example 320] | 100 to 1000
25 | Cc1cnc(-c2cc(C#N)ccc2Cn2nccc2-c2cc(F)c3nnn(-c4ccc5[nH]c(=O)[nH]c5c4)c3c2)o1 [Example 321] | 100 to 1000

Row | SMILES | IC50 [nM]
26 | N#Cc1ccc(Cn2nc(C(=O)O)cc2-c2cc(F)c3nnn(-c4ccc5[nH]c(=O)[nH]c5c4)c3c2)cc1 [Example 322] | > 1000
27 | N#Cc1ccc(Cn2ncc(Cl)c2-c2ccc3nnn(-c4ccc5[nH]c(=O)[nH]c5c4)c3c2)cc1 [Example 323] | 100 to 1000
28 | N#Cc1ccc(Cn2nccc2-c2cnc3c(c2)c(-c2ccc4[nH]c(=O)[nH]c4c2)nn3CCO)cc1 [Example 324] | > 1000
29 | COC(=O)Cn1nc(-c2ccc3[nH]c(=O)[nH]c3c2)c2cc(-c3ccnn3Cc3ccc(C#N)cc3)cnc21 [Example 325] | > 1000
30 | N#Cc1ccc(Cn2ncc(Cl)c2-c2cc(F)c3nnn(-c4ccc5[nH]c(=O)[nH]c5c4)c3c2)cc1 [Example 326] | 100 to 1000
31 | Cn1nc(-c2ccc3[nH]c(=O)[nH]c3c2)c2cc(-c3ccnn3Cc3ccc(C#N)cc3)ncc21 [Example 327] | 100 to 1000
32 | N#Cc1ccc(Cn2cccc2-c2cc(F)c3nnn(-c4ccc5[nH]c(=O)[nH]c5c4)c3c2)cc1 [Example 328] | 100 to 1000
33 | N#Cc1ccc(Cn2nccc2-c2cnc3c(F)nn(-c4ccc5[nH]c(=O)[nH]c5c4)c3c2)cc1 [Example 329] | 100 to 1000
34 | N#Cc1ccc(Cn2ncc(C#N)c2-c2cc(F)c3nnn(-c4ccc5[nH]c(=O)[nH]c5c4)c3c2)cc1 [Example 330] | > 1000
35 | N#Cc1ccc(Cn2ncc(F)c2-c2cc(F)c3nnn(-c4ccc5[nH]c(=O)[nH]c5c4)c3c2)cc1 [Example 331] | 100 to 1000
36 | Cn1c(=O)n(-c2ccc3cn[nH]c3c2)c2cc(-c3ccnn3Cc3ccc(C#N)cc3)cnc21 [Example 332] | > 1000
37 | N#Cc1ccc(Cn2c(-c3cc(F)c4nnn(-c5ccc6[nH]c(=O)[nH]c6c5)c4c3)c[nH]c2=O)cc1 [Example 333] | 100 to 1000
38 | Cc1cnn(Cc2ccc(C#N)cc2)c1-c1cc(F)c2nnn(-c3ccc4[nH]c(=O)[nH]c4c3)c2c1 [Example 334] | 100 to 1000
39 | N#Cc1ccc(Cn2nccc2-c2ccc3cnc(-c4ccc5[nH]c(=O)[nH]c5c4)n3c2)c(F)c1 [Example 335] | > 1000
40 | N#Cc1ccc(Cn2nccc2-c2cnc3c(CO)nn(-c4ccc5[nH]c(=O)[nH]c5c4)c3c2)cc1 [Example 336] | 100 to 1000
41 | N#Cc1ccc(Cn2nccc2-c2cnc3c(N)nn(-c4cc(F)c5[nH]c(=O)[nH]c5c4)c3c2)c(F)c1 [Example 337] | 100 to 1000
42 | N#Cc1ccc(Cn2nccc2-c2cc3c(cnn3-c3ccc4cn[nH]c4c3)c(=O)[nH]2)c(F)c1 [Example 338] | 100 to 1000
43 | N#Cc1ccc(Cn2nccc2-c2cnc3c(N)nn(-c4cc5[nH]c(=O)[nH]c5cc4F)c3c2)c(F)c1 [Example 339] | < 100
44 | Cn1nc(-c2ccc3cn[nH]c3c2)c2cc(-c3ccnn3Cc3ccc(C#N)cc3)cnc21 [Example 341] | 100 to 1000
45 | N#Cc1ccc(Cn2nccc2-c2cnc3c(c2)c(-c2ccc4cn[nH]c4c2)nn3CCc2ccccc2)cc1 [Example 342] | > 1000
46 | N#Cc1ccc(Cn2nccc2-c2cc(F)c3nnn(-c4ccc5[nH][nH]c(=O)c5c4)c3c2)cc1 [Example 343] | 100 to 1000
47 | N#Cc1ccc(Cn2nccc2-c2cc(F)c3nnn(-c4ccc5c(CO)n[nH]c5c4)c3c2)cc1 [Example 344] | 100 to 1000
48 | N#Cc1ccc(Cn2nccc2-c2cc(F)c3nnn(-c4ccc5c(N)n[nH]c5c4)c3c2)cc1 [Example 345] | 100 to 1000
49 | N#Cc1ccc(Cn2nccc2-c2cc3c(cn2)nnn3-c2ccc3c(=O)[nH][nH]c3c2)cc1 [Example 346] | 100 to 1000
50 | N#Cc1ccc(Cn2nccc2-c2cc(F)c3nnn(-c4ccc5c(CNS(N)(=O)=O)n[nH]c5c4)c3c2)cc1 [Example 347] | > 1000
